What was measured:
[1] = system: COS 5-7 cells; experiment: Uptake after one minute of electric pulse train (EPT) in three-compartment device, FACS; format: cell-based, African green monkey; details: for Folds Uptake mean: electric field 200 mA/cm^2; for Folds Uptake mean / Folds Uptake Fold: 1 min, 10 μM Dextran-FITC; for Folds Uptake Fold: relative to unexposed cells
Method: Exposure of cells to low-intensity trains of unipolar rectangular voltage pulses was carried in a three-compartment exposure set-up where the anode and cathode were connected to an electric pulse generator (Grass S44 Stimulator). The exposure set-up consisted of a rectangular chamber made from polystyrene, 15 mm long, 10 mm wide, with 0.5 cm^2 area platinum electrodes positioned on the extreme sides (see FIG. 15). The chamber is divided by two porous membranes (PolyEtherSulfon, 0.8 μm pores, 200 μm depth), into three distinct and equal compartments: anode, cathode and center ones. The electric field parameters applied were monitored on line by recording the voltage and the current (by means of a wide band current probe, Pearson) on an oscilloscope. Typically, a cell suspension (1*10^6 cells/ml) is exposed to a train of electric pulses consisting of unipolar rectangular pulses with duration of 180 μs, frequency of 500 Hz for the total time of exposure of one minute.
Flow cytometry analysis was carried out by FACSort (Becton @ Dickson, San Jose, Calif.), employing a 488-nm argon laser excitation. […] Ten thousand cells were examined for each sample and data were collected in the list mode. The analysis of flow cytometry data was performed using WINMDI 2.9 software (Joe Trotter, The Scripps Research Institute). For each sample the geometrical mean was calculated without including PI stained cells. Cell intensity was determined as fold of induction relative to cells' constitutive uptake.

[2] = system: erythrocytes (RBCs); experiment: Proton induced uptake and efflux in erythrocytes (RBCs), flow cytometry; format: cell-based
Method: As shown, PIU in erythrocytes depends on external pH in a constant rate. […] Flow cytometry analyses include FITC intensity geometrical mean±SD presented as fold induction relative to background. n=9 in 3 independent experiments.
RBCs were exposed to external pH 5.4 for time durations of 10, 15, 30, 45 and 60 minutes. […] Flow cytometry analyses in terms of geometrical mean±SD are presented as fold induction relative the fluorescent intensity in the first group (10 min). No statistical difference is found in PIU rate for the different groups (p >0.05 by one way ANOVA, n=9 in 3 independent experiments).
Flow cytometry analyses include FITC intensity geometrical mean±SD presented as fold induction relative to background. n=9 in 3 independent experiments.
The cells were washed and divided into 2 groups, suspended in fresh solution of either pH 7.4 or pH 5.4. Cells from each group were incubated for durations of 10, 20, 30, 45 and 60 minutes, before being analyzed by flow cytometry. Results given in terms of geometrical mean±SD are presented as fold induction relative to cells analyzed immediately following exposure to low pH. n=8 in 2 independent experiments.
Following treatment the cells were washed in PBS-G and analyzed by flow cytometry. Results are presented as geometrical mean of FITC intensity±SD for 50,000 cells per sample.
This apparent saturation may be attributed to a competitive efflux process. […] Next, the cells were washed and re-suspended in fresh PBS-G of either pH 7.4 or 5.4, in the absence of dextran and then incubated at 37° C. for durations of 10, 20, 30, 45 and 60 minutes, followed by flow cytometry analysis (FIG. 32B). Dextran concentrations in RBCs incubated under physiological conditions (pH 7.4) suffers some gradual 20% decrease in value for 60 minutes after PIPC(P<0.05, one tail t-test). However, when RBCs are incubated at pH 5.4, the dextran concentration decline rapidly during the first 10 minutes, losing 50% of their initial value after 20 minutes and continue to decrease at a declining rate for the rest of the period monitored. It appears that long exposure of RBCs to low pH inflict some damage to the cells ability to retain the uptake cargo molecule (FIG. 32b). In an exemplary embodiment of the invention, RBCs are instead subjected to a pulsed treatment regime. […] In an exemplary embodiment of the invention, pulsed uptake is used to avoid/reduce causing leakage in cells and thus reduce efflux. Optionally or alternatively, cells that are sensitive to low pH can be treated. For example, one hour exposures separated by two hour rest periods may be used for siRNA transfection of pH-sensitive cells. […]

[3] = system: COS 5-7 cells; experiment: Uptake after one minute of chemically induced low pH (HCl added to HBSS suspension), FACS; format: cell-based, African green monkey; details: for Folds Uptake mean: 1 min, 10 μM Dextran-FITC
Method: The following tables show a connection between pH and current. […] The values in the tables are shown as folds relative to the uptake in cells unexposed to any of the treatments. […] The results are expected to be substantially independent of cell type and molecule used, except for a cell-specific change and a molecule specific change.
Cells (COS 5-7) were harvested, re-suspended in DMEM (1 mg/ml glucose, 5% FCS), and incubated (37°, 5% CO2) as designated by the experiment. For uploading the cells with either H2DCF-DA (20 μM) or Bis-DHA (1 mM) incubation lasted 90 minutes. When no pre-treatments were required, the cells were kept in the DMEM for 30 minutes. Following incubation, the cells were centrifuged at 400g for 1 min, the solution aspirated, and cells re-suspended in HBSS exposure media.
Exposure of cells to pulse acidification was through the addition of HCl to the HBSS suspension for 60 seconds, terminated by the addition of a three fold larger volume of DMEM-H.
Cell suspensions were centrifuged (400g for one minute), their solutions aspirated and they were re-suspended with 0.5 ml DMEM-H supplemented with 10u/ml dextranase (Sigma-Aldrich) for 10 minutes at RT. Cells were centrifuged again; their solution aspirated and they were re-suspended with 0.2 ml DMEM-H. PI (25 μg/ml) as a label for permeabilized cells and tryphan blue (0.01% w/v) as a fluorescence quenching agent for extracellular FITC (36) were added to each sample shortly before analysis
Flow cytometry analysis was carried out by FACSort (Becton @ Dickson, San Jose, Calif.), employing a 488-nm argon laser excitation. The green fluorescence of FITC was measured via 530/30 nm filter, the red fluorescence of PI was detected via a 585/42 nm filter. […] Ten thousand cells were examined for each sample and data were collected in the list mode. The analysis of flow cytometry data was performed using WINMDI 2.9 software (Joe Trotter, The Scripps Research Institute). For each sample the geometrical mean was calculated without including PI stained cells. Cell intensity was determined as fold of induction relative to cells' constitutive uptake.
After one minute incubation, cell suspensions were immediately diluted with 3 fold larger volume of cold buffered DMEM to restore pH to a normal pH of 7.5.

[4] = system: COS 5-7 cells; experiment: Proton induced uptake (PIU) in adherent COS 5-7 cultures, 5 minutes, FACS; format: cell-based, African green monkey; details: pH 5, P<0.001
Text: Uptake, based on flow cytometry, is plotted as function of the external pH from 3 independent experiments per cell line.
FIG. 1A is shown the Extent of uptake in terms of FITC intensity geometrical mean±SD is presented as fold induction relative to the constitutive uptake at physiological pH 7.4. In FIG. 1B is shown the PI (a necrotic cell marker) stained cells fraction±SD (%) relative to unexposed control population. In FIG. 1C is shown the FITC geometrical mean±SD presented as fold induction relative to the constitutive uptake at physiological pH 7.4.

## Dextran-FITC
[1]; 60 mM HEPES in HBSS
  Folds Uptake mean: 51.98 folds
[1]; 70 mM HEPES in HBSS
  Folds Uptake mean: 48.84 folds
[1]; 80 mM HEPES in HBSS
  Folds Uptake mean: 14.86 folds
[1]; 90 mM HEPES in HBSS
  Folds Uptake mean: 12.81 folds
[1]; 100 mM HEPES in HBSS
  Folds Uptake mean: 10.06 folds
[1]; 120 mM HEPES in HBSS
  Folds Uptake mean: 4.613 folds
[1]; 150 mM HEPES in HBSS
  Folds Uptake mean: 3.106 folds
[1]; 10 V/cm, 80 mA/cm^2
  Folds Uptake Fold: 1.62 folds
[1]; 13.3 V/cm, 120 mA/cm^2
  Folds Uptake Fold: 2.449 folds
[1]; 16.6 V/cm, 160 mA/cm^2
  Folds Uptake Fold: 6.017 folds
[1]; 20 V/cm, 80 mA/cm^2
  Folds Uptake Fold: 1.824 folds
[1]; 20 V/cm, 120 mA/cm^2
  Folds Uptake Fold: 3.015 folds
[1]; 20 V/cm, 160 mA/cm^2
  Folds Uptake Fold: 5.476 folds
[1]; 20 V/cm, 200 mA/cm^2, 100 mM HEPES
  Folds Uptake Fold: 9.134 folds
[1]; 26.6 V/cm, 200 mA/cm^2
  Folds Uptake Fold: 11.73 folds
[1]; 33.3 V/cm, 200 mA/cm^2
  Folds Uptake Fold: 10.49 folds
[1]; 46.6 V/cm, 80 mA/cm^2
  Folds Uptake Fold: 1.694 folds
[1]; 46.6 V/cm, 160 mA/cm^2
  Folds Uptake Fold: 6.34 folds
[1]; 66.6 V/cm, 120 mA/cm^2
  Folds Uptake Fold: 3.447 folds
[1]; train of electric pulses 20V/cm, 200 mA/cm^2, anodic compartment only, relative to constitutive uptake
  increase in cellular uptake in the anodic compartment: 10 fold
[2]; 70 kD dextran-FITC 10 μM, 5 minutes, P<0.05
  external pH at which uptake is significant relative to autofluorescence at pH 7.4: < 6 pH
[2]; incubated at pH 5.4, 37° C., after 20 minutes
  loss of initial intracellular dextran concentration after loading: 50%
[2]; incubated at pH 7.4, 37° C., 60 minutes after 10 minutes loading at pH 5.4
  decrease of intracellular dextran concentration after loading: 20%
[2]; low pH solution, cycles separated by washing and 10 minutes in PBS-G
  intracellular concentration after three cycles of 10 minutes exposure versus one exposure of 30 minutes: higher concentration
[3]; pH 1.6, relative to unexposed cells
  Folds Uptake mean: 48.09 folds
[3]; pH 1.9, relative to unexposed cells
  Folds Uptake mean: 42.47 folds
[3]; pH 2.5, relative to unexposed cells
  Folds Uptake mean: 47.62 folds
[3]; pH 2.9, relative to unexposed cells
  Folds Uptake mean: 45.54 folds
[3]; pH 3.1, relative to unexposed cells
  Folds Uptake mean: 41.25 folds
[3]; pH 3.3, relative to unexposed cells
  Folds Uptake mean: 20.14 folds
[3]; pH 3.5, relative to unexposed cells
  Folds Uptake mean: 9.575 folds
[3]; pH 3.7, relative to unexposed cells
  Folds Uptake mean: 7.679 folds
[3]; pH 4, relative to unexposed cells
  Folds Uptake mean: 4.776 folds
[3]; pH 4.7, relative to unexposed cells
  Folds Uptake mean: 3.856 folds
[3]; pH 5, relative to unexposed cells
  Folds Uptake mean: 2.594 folds
[3]; pH 5.8, relative to unexposed cells
  Folds Uptake mean: 2.636 folds
[3]; pH 6, relative to unexposed cells
  Folds Uptake mean: 1.483 folds
[3]; pH 6.25, relative to unexposed cells
  Folds Uptake mean: 1.619 folds
[3]; pH 7.4 (reference)
  Folds Uptake mean: 1 folds
[3]; steep elevation of uptake starting at pH 4
  pH at which uptake reaches saturation: 3 pH
[4]
  dextran concentration relative to HT29 cells: 2 folds
